Columns and labels:
CT26.CL25 cells = assay: Annexin V flow cytometry for direct death of cancer cells; type: cell-based, mouse; conditions: 30 μM, 24 hours
Protocol: (§1) Specifically, the present inventors treated CT26.CL25 cells and B16F10-Ova cells with 30 μM of the ROCK inhibitor Y27632 for 24 hours, and performed flow cytometry analysis using FITC-anti-Annexin V antibodies (Abcam, USA). On the other hand, cells were treated with 10 μg of TRAIL, 0.25 μM of doxorubicin, 2.5 μM of doxorubicin, or 25 μM of doxorubicin, respectively, for 4 hours, as positive controls.

B16F10-Ova cells [1] = assay: as above; type: cell-based, mouse; conditions: 30 μM, 24 hours
Protocol: as §1

MMTV/Neu mice tumors = assay: Spontaneous cancer development model; type: in vivo
Protocol: The survival rate was recorded over up to 100 days. When the size of tumor was over 2,500 mm^3, the animal was euthanized (FIG. 20C).
Specifically, fluorescence immunohistochemical analysis was performed using anti-CD8 antibodies in the cancer tissues after the end of the experiment.
Accordingly, the present inventors investigated whether the combination of the drugs can increase the anti-cancer immunity even in the spontaneous cancer development model. […] After completion of the experiment, the present inventors isolated the spleen cells and treated with peptide against rat-Neu, an antigen expressed in the cancer of the spontaneous cancer development model, and after 48 hours, the culture supernatant was collected and IFN-γ was quantified using an ELISA kit (R&D Systems, Inc, USA).

[2] = system: bone marrow-derived dendritic cells (BMDC); assay: Cross presentation of H-2Kb-Ova by BMDCs in vitro; type: cell-based, mice; conditions: Y27632 30 μM, 1 hour on BMDCs; cancer cells doxorubicin treated or untreated
Protocol: Furthermore, the inventors investigated whether the cross presentation of dendritic cells was promoted by the combination treatment of doxorubicin and Y27632. To this end, the present inventors used 30 μM of Y27632 to pretreat bone marrow-derived dendritic cells (BMDC) stained with CellTracker CMFDA (Thermo Fisher Scientific, USA) for 1 hour, followed by treatment with doxorubicin treated B16F10-Ova cells or doxorubicin untreated B16F10-Ova cells. After the co-culture, floating cancer cells were removed by withdrawing supernatant. Cross presentation activity, which is one of functions of dendritic cells, was analyzed via flow cytometry analysis using an antibody capable of detect a cancer antigen (H-2K^b-Ova) capable of activating T cells, through flow cytometry analysis using an antibody (H-2K^b monoclonal antibody, Invitrogen, USA).

B16F10-Ova cells [3] = assay: B16F10-Ova tumor model; type: in vivo, C57L/B6 wild-type mice; conditions: 10 mg/kg intravenous
Protocol: CT26.CL25 cancer cells (1×10^6) expressing β-galactosidase were subcutaneously injected into the left back of a Balb/c wild type mice to generate a tumor model Similarly, an […] tumor model was prepared by subcutaneously injecting melanoma cell line B16F10-Ova cells (5×10^5) into the left back of C57L/B6 wild-type mice to induce cancer.
In the case of the CT26.CL25 cancer cell line, 6 days after the injection of the cancer cells, and in the case of B 16F10-Ova, 9 days after the injection of the cancer cells, Y27632 was administered by intravenous injection at a dose of 10 mg/kg as indicated in FIG. 8a. In the case of the CT26.CL25 model, the mice were sacrificed on the 22nd day after the injection of the cancer cells and in the case of the B16F10-Ova cancer model, the mice were sacrificed on the 20th day after the injection of the cancer cells (FIG. 8A). As a negative control, phosphate-buffered saline was administered instead of Y27632.
The tumor tissues of the mice were excised, an ex vivo image was taken and the tumor tissue were weighed (FIG. 8B). In addition, before the mice were sacrificed, changes in body weights were measured at intervals of 3 days from the 6th day of the cancer cell injection in the CT26.CL25 cancer model and at intervals of 3 days from the 9th day in the B16F10-Ova cancer model (FIG. 8c). Length (L) and width (W) of the tumor tissues were measured, and the volume of the tumor tissues over time was calculated using the following formula (FIGS. 8D and 8E):
The volume of tumor tissue (V[mm^3])=(L[mm])[…] (W[mm])^2×0.5.

B16F10-Ova = B16F10-Ova tumor model, Y27632 combined with a chemotherapeutic; type: in vivo, mice; conditions: doxorubicin 5 mg/kg, Y27632 10 mg/kg
Protocol: Specifically, tumor suppression was examined by administering 5 mg/kg of doxorubicin and 10 mg/kg of Y27632 alone or in combination to B16F10-Ova-bearing tumor model mice prepared as in Example 2-1. Doxorubicin was administered three times at intervals of 3 days from the 8th day after the injection of cancer cells, and Y27632 was administered at a dose of 10 mg/kg continuously for two consecutive days via intravenous injection followed by a day of rest as a cycle, followed by 3 cycles of 3-day intervals (FIG. 18A). The mice were sacrificed on the 20th day after the injection of cancer cells, the tumor tissue was excised, and ex vivo images were taken and the tumor tissues were weighed. Before the sacrifice of the mice, the tumor volumes over time were calculated as described above using calipers at intervals of 3 days from the 8th day after the injection of the cancer cells.
In order to confirm whether CD8^+ T cells infiltrates into tumor tissues, tumor tissues excised from an experimental animal were sectioned and subjected to fluorescence immunohistochemistry using anti-CD8 antibodies.
First, to determine the cisplatin therapeutic concentration, a B16F10-Ova tumor model was constructed in a nude mouse lacking T cell immunity and then an experiment was conducted to confirm the concentration of cisplatin having an anticancer effect similar to that of doxorubicin at 5 mg/kg. […] Thus, in order to evaluate the therapeutic effect of cisplatin and the ROCK inhibitor Y27632 in the B16F10-Ova-bearing tumor model, 3 mg/kg of cisplatin was administered according to the administration schedule shown in FIG. 18A.

CT26 cancer cells = assay: CT26 tumor model; type: in vivo, mice; conditions: fasudil 20 mg/kg; Y27632 10 mg/kg
Protocol: The same procedure as described above was repeated except that CT26 was used instead of the CT26.CL25 colon cancer cell line and fasudil (Selleck Chemicals, USA) at 20 mg/kg of body weight or Y27632 at 10 mg/kg of body weight was administered.

SMILES: C[C@@H](N)[C@H]1CC[C@H](C(=O)Nc2ccncc2)CC1 [Y27632]
- death of cancer cells (Annexin V) (CT26.CL25 cells): not to increase the death of cancer cells
- death of cancer cells (Annexin V) (B16F10-Ova cells [1]): not to increase the death of cancer cells
- anti-cancer immunity (IFN-γ of spleen cells treated with rat-Neu peptide) (MMTV/Neu mice tumors; 48 hours): increased
- CD8+ T cells in tumor tissues (infiltration) (MMTV/Neu mice tumors; anti-CD8 fluorescence immunohistochemistry): some T cell infiltration
- cross presentation (H-2Kb-Ova) of BMDCs co-cultured with B16F10-Ova cells [2]: increased the cross-presentation
- body weight of the mice (B16F10-Ova cells [3]): no significant change
- volume of the tumors (B16F10-Ova cells [3]): significantly decreased
- weight of the tumors (B16F10-Ova cells [3]; day 20): significantly decreased
- complete regression of the tumor (B16F10-Ova): not observed
- infiltration of CD8+ T cells into tumor tissues (B16F10-Ova): slight infiltration
- growth of cancer (size of the tumor) (CT26 cancer cells): inhibited the growth of cancer
